These results are taken from ChEMBL document CHEMBL2424558, “Synthesis and biological evaluation of novel quinazoline derivatives obtained by Suzuki CC coupling” (2013).

Values after ≈ are worked out from the molar mass of the structure shown.

Holding throughout (type): functional
The test system of one test is Pseudomonas aeruginosa. Briefly: Antibacterial activity against Pseudomonas aeruginosa MTCC 741. As to conditions: for MIC: Pseudomonas aeruginosa, MTCC 741.
In a further test the test system is Staphylococcus aureus. Briefly: Antibacterial activity against Staphylococcus aureus MTCC 96. Conditions: for MIC: Staphylococcus aureus, MTCC 96.
The next test has as its system Bacillus cereus. Briefly: Antibacterial activity against Bacillus cereus MTCC 430. As to conditions: for MIC: Bacillus cereus, MTCC 430.
In another test the test system is Klebsiella pneumoniae. Briefly: Antibacterial activity against Klebsiella pneumoniae MTCC 109. As to conditions: for MIC: Klebsiella pneumoniae, MTCC 109.
The next test deals with Candida albicans. Briefly: Antifungal activity against Candida albicans MTCC 183. As to conditions: for MIC: Candida albicans, MTCC 183.
The subject of a further test is Escherichia coli. Briefly: Antibacterial activity against Escherichia coli MTCC 739. As to conditions: for MIC: Escherichia coli, MTCC 739.
Test [1] deals with Mycobacterium tuberculosis. The test is described as follows: Antimycobacterial activity against Mycobacterium tuberculosis H37Rv. As to conditions: for MIC: Mycobacterium tuberculosis, H37Rv.
The test system of the next test is Aspergillus niger. The test is described as follows: Antifungal activity against Aspergillus niger MTCC 282. As to conditions: for MIC: Aspergillus niger, MTCC 282.

Take `Cc1ccc(NC(=O)Nc2ccc(-c3nc(Oc4cccc(C)c4)c4ccccc4n3)cc2)cc1`: the “inhibition zone (IZ)” value with Pseudomonas aeruginosa was determined as 27 mm; with Staphylococcus aureus, 23 mm; with Bacillus cereus, 24 mm; in the test on Klebsiella pneumoniae, 24 mm; with Candida albicans, 24 mm; in the test with Escherichia coli, 24 mm. For the same compound, in the test with Aspergillus niger, the “inhibition zone (IZ)” value is on record as 21 mm. Moreover, the MIC (in general, the least concentration at which growth counts as inhibited) came to 25 µg/mL (≈ 54.3 µM) in the test with Pseudomonas aeruginosa; 100 µg/mL (≈ 217 µM) against Staphylococcus aureus; 250 µg/mL (≈ 543 µM) against Bacillus cereus; 50 µg/mL (≈ 109 µM) against Klebsiella pneumoniae; 50 µg/mL (≈ 109 µM) in the test with Candida albicans; 25 µg/mL (≈ 54.3 µM) in the test on Escherichia coli. Besides, the MIC (in test [1]; in the test on Aspergillus niger) was 200 µg/mL (≈ 434 µM) each time. For the same compound, in test [1], the “inhibition (INH)” value amounted to 95%.

For the compound `Cc1ccc(NC(=S)Nc2ccc(-c3nc(Oc4cccc(C)c4)c4ccccc4n3)cc2)cc1`, the “inhibition zone (IZ)” value in the test on Pseudomonas aeruginosa is listed as 23 mm; with Staphylococcus aureus, 22 mm; in the test with Bacillus cereus, 21 mm; in the test with Klebsiella pneumoniae it was 21 mm; in the test with Candida albicans, 23 mm; in the test with Escherichia coli, 23 mm. For the same compound, the “inhibition zone (IZ)” value in the test on Aspergillus niger is 18 mm. The MIC in the test with Pseudomonas aeruginosa came out at 50 µg/mL (≈ 105 µM); with Staphylococcus aureus, 50 µg/mL (≈ 105 µM); against Bacillus cereus, 200 µg/mL (≈ 420 µM); in the test with Klebsiella pneumoniae, 50 µg/mL (≈ 105 µM); with Candida albicans, 50 µg/mL (≈ 105 µM); in the test on Escherichia coli it was 50 µg/mL (≈ 105 µM). Also, the MIC was found to be 100 µg/mL (≈ 210 µM) in test [1] and 200 µg/mL (≈ 420 µM) against Aspergillus niger. In test [1], the “inhibition (INH)” value was found to be 94%.

In the case of `Cc1cccc(Oc2nc(-c3ccc(NC(=O)Nc4ccc(Cl)cc4)cc3)nc3ccccc23)c1`, the “inhibition zone (IZ)” value in the test with Pseudomonas aeruginosa is 24 mm; with Staphylococcus aureus, 25 mm; in the test on Bacillus cereus it was 24 mm; with Klebsiella pneumoniae it was 23 mm; in the test on Candida albicans, 21 mm; with Escherichia coli, 27 mm. Besides, the “inhibition zone (IZ)” value with Aspergillus niger was 26 mm. Further, the MIC came to 50 µg/mL (≈ 104 µM) with Pseudomonas aeruginosa; 50 µg/mL (≈ 104 µM) in the test on Staphylococcus aureus; 100 µg/mL (≈ 208 µM) in the test on Bacillus cereus; 62.5 µg/mL (≈ 130 µM) against Klebsiella pneumoniae; 100 µg/mL (≈ 208 µM) in the test with Candida albicans; 62.5 µg/mL (≈ 130 µM) against Escherichia coli. For the same compound, the figures for the MIC (in test [1]; against Aspergillus niger) were 100 µg/mL (≈ 208 µM) and 200 µg/mL (≈ 416 µM), respectively. The “inhibition (INH)” value in test [1] is recorded as 98%.

For the compound `COc1ccc(NC(=O)Nc2ccc(-c3nc(Oc4cccc(C)c4)c4ccccc4n3)cc2)cc1`, the “inhibition zone (IZ)” value with Pseudomonas aeruginosa was 26 mm; in the test with Staphylococcus aureus, 23 mm; in the test on Bacillus cereus, 22 mm; with Klebsiella pneumoniae, 26 mm; in the test with Candida albicans, 25 mm; in the test with Escherichia coli, 24 mm. Besides, the “inhibition zone (IZ)” value in the test with Aspergillus niger was 23 mm. The minimum inhibitory concentration (MIC) is 25 µg/mL (≈ 52.5 µM) against Pseudomonas aeruginosa; 25 µg/mL (≈ 52.5 µM) in the test with Staphylococcus aureus; 50 µg/mL (≈ 105 µM) against Bacillus cereus; 200 µg/mL (≈ 420 µM) against Klebsiella pneumoniae; 25 µg/mL (≈ 52.5 µM) against Candida albicans; 200 µg/mL (≈ 420 µM) against Escherichia coli. In addition, the values for the MIC (in test [1]; against Aspergillus niger) were 62.5 µg/mL (≈ 131 µM) and 50 µg/mL (≈ 105 µM), respectively. In test [1], the “inhibition (INH)” value was determined as 94%.
